Data from patent publication US10308631B2, “Selective anti-cancer compounds” (NATIONAL UNIVERSITY OF SINGAPORE, priority 2015, dated 2019).

What was measured:
[1] = tested on: HeLa cells (mitotic spindles, β-tubulin/DAPI); assay: Immunofluorescence analysis of mitotic spindles and chromosomes; format: cell-based, human; settings: 6 h, Compound 1 2.5 μM, CQ 15 or 25 μM
Procedure: HeLa cells, treated with Compound 1 (a131) at 2.5 μM (FIG. 3b), chloroquine (CQ) at 15 μM (FIG. 3c) or 25 μM (FIG. 3d), or DMSO (FIG. 3a) for 6 h, were fixed in methanol and subjected to immunofluorescence analysis using antibodies against β-tubulin to visualize proper formation of mitotic spindles. The condensed mitotic chromosomes were visualized by counterstaining with DAPI. Only Compound 1 (a131)-treated HeLa cells arrested in mitosis with misaligned chromosomes and disorganized spindles (FIG. 3b). The bars in FIGS. 3a-d represent 5 μm in length.
To confirm the inhibitory mitotic progression ability, HeLa cervical cancer cells as cultured above were treated with Compound 1 (2.5 μM, DMSO), CQ (15 or 25 μM, DMSO) or DMSO for 6 h. The treated cells were fixed in methanol and subjected to immunofluorescence analysis using antibodies against β-tubulin (Abcam, Cat#ab52623) to visualize proper formation of mitotic spindles. The condensed mitotic chromosomes were visualized by counterstaining with DAPI.

[2] = tested on: mitotic marker phospho-histone H3 at serine 10 (pH3 (Ser10)) in transformed BJ cells; assay: Immunoblot analysis of mitotic marker pH3 (Ser10), derivatives of Compound 1; format: cell-based; settings: Homo sapiens, band intensities pH3(Ser10)/β-actin vs DMSO control, 24 h
Procedure: (§1) FIG. 4 compares the ability of Compound 1 (a131), and various derivatives thereof (referred to using their code numbers for brevity; the designated chemical compound for each code number is provided in the chemical examples section below), to inhibit autophagy and/or mitosis. BJ transformed cells were treated with 5 μM of various Compounds as shown, for 24 h. Cells were harvested and total lysates were analysed by detecting the mitotic marker phospho-histone H3 at serine 10 (pH3 (Ser10)) and the autophagosome marker LC3. Antibodies raised against β-actin were used as an internal loading control.
(§2) The ability of Compound 1 to inhibit lysosome function was examined using immunoblotting. HeLa cervical cancer cells were cultured in Dulbecco's modified Eagle's medium (DMEM) supplemented with 10% Fetal Bovine Serum (FBS, Thermo Scientific). The HeLa cells were treated with different concentrations of Compound 1 (0.625, 1.25, 2.5, 5 and 10 μM, dimethyl sulfoxide (DMSO, Kanto Kagaku)), chloroquine (CQ) (1.25, 2.5, 10, 50 and 100 μM, DMSO) or DMSO for 6 h. Then, the treated cells were harvested and lysed in 1% triton lysis buffer [25 mM Tris HCl (pH8.0), 150 mM NaCl, 1% triton-X100, 1 mM dithiothreitol (DTT), protease inhibitor mix (Complete Mini, Roche) and phosphatase inhibitor (PhosphoStop, Roche)]. The proteins in total lysates were boiled with sample buffer (60 mM Tris-HCl (pH 6.8), 25% glycerol, 2% SDS, 14.4 mM 2-mercaptoethanol, 0.1% bromophenol blue) and resolved by 14% tris-glycine sodium dodecyl sulfate polyacrylamide gel electrophoresis (SDS-PAGE) and subjected to immunoblot analysis.
(§3) Defects in lysosome function and inhibition of autophagy can be measured by accumulation of LC3-phosphatidylethanolamine conjugated non-soluble form (LC3-II), which are converted from soluble LC3-I. Thus, antibodies raised against LC3 (Cell Signaling, Cat#4108) were used to determine lysosomal function and integrity. Antibodies raised against phosphorylated histone H3 at serine 10 residue (pH3) (Cell signaling, Cat#3377) were used as the marker for mitotic dysfunction and arrest. Antibodies raised against β-actin (Millipore, Cat#MAB1501) were used as an internal loading control. The inhibitory ability of Compound 1 was also quantitatively compared to CQ.
(§4) Derivatives of Compound 1 were tested to see if they had similar dual activity, or presented only one of the activities of Compound 1. The protocol for immunoblot analysis described in Biology Example 1 was applied to the additional indicated compounds.
(§5) Activities of compounds were determined by two independent experiments. First, Compounds were classified according to the intensity of increase in each of the mitotic marker phospho-histone H3 at serine 10 (pH3 (Ser 10)) and the autophagosome marker LC3, respectively, at 1.25 μM, when compared with 1.25 μM Compound 1 (a131).
(§6) Compounds classified “++” on either “mitosis” or “inhibits lysosome” show similar increase in each of the mitotic marker phospho-histone H3 at serine 10 (pH3 (Ser10)) and the autophagosome marker LC3, respectively, at 2.5 μM, when compared with 1.25 μM Compound 1 (a131); and compounds classified “+” on either “mitosis” or “inhibits lysosome” show similar increase in each of the mitotic marker phospho-histone H3 at serine 10 (pH3 (Ser10)) and the autophagosome marker LC3, respectively, at a concentration range of 5-10 μM, when compared with 1.25 μM Compound 1 (a131).
Compounds classified “+/−” on either “mitosis” or “inhibits lysosome” show less increase in each of the mitotic marker phospho-histone H3 at serine 10 (pH3 (Ser10)) and the autophagosome marker LC3, respectively, at a concentration range of 5-10 μM, when compared with 1.25 μM Compound 1 (a131).
Next, the ability of Compound 1 and its derivatives to induce mitotic arrest in transformed BJ cells was quantified as the fold induction of band intensities [pH3(Ser10)/β-actin] in comparison with DMSO control. […]

[3] = tested on: autophagosome marker LC3 (LC3 II/LC3 I) in transformed BJ cells; assay: Immunoblot analysis of autophagosome marker LC3 (lysosome function), derivatives of Compound 1; format: cell-based; settings: Homo sapiens, band intensities LC3 II/LC3 I vs DMSO control, 24 h
Procedure: as §1, §2, §3, §4, §5, §6
Compounds classified “+/−” on either “mitosis” or “inhibits lysosome” show less increase in each of the mitotic marker phospho-histone H3 at serine 10 (pH3 (Ser10)) and the autophagosome marker LC3, respectively, at a concentration range of 5-10 μM, when compared with 1.25 μM Compound 1 (a131). […]

[4] = tested on: non-transformed normal BJ cells; assay: BrdU incorporation and FACS analysis (cell cycle arrest); format: cell-based, human; settings: 24 h; 2.5 and 5 μM (FIG. 9A, 9C)
Procedure: A: is output from a FACS analysis of isogenic-non-transformed, without (panels a-c) (WT) or with (panels d-f) shRNA-mediated knockdown of p53 (p53KD), and oncogene-transformed BJ cells (panels g-i), each treated with 0, 5 or 2.5 μM Compound 1 (a131) for 24 h. Cells were doubly stained with PI (horizontal axis) and BrdU (vertical axis). The BrdU-positive population in panels a-c are indicated as arrows. B: is a diagrammatic representation of an immunoblot analysis showing isogenic non-transformed (normal) and oncogene-transformed BJ cells (transformed) treated with Compound 1 (a131) at 0, 2.5 or 5 μM for 24 h or 48 h. Cells were harvested and total lysates were analysed by detecting p53 and p21. Antibodies raised against β-actin were used as an internal loading control. C and D are histograms showing the percentage of bromodeoxyuracil (BrdU)-positive non-transformed (normal) BJ cells. C: Cells were treated with Group 1 Compound 1 (a131) at 2.5 and 5 μM, Compound 23 (b36) at 2.5 and 5 μM, and Compound 21 (b35) at 5 μM, and Group 2 Compound 25 (a166) at 2.5 and 5 μM, for 24 h. Cells were doubly stained with propidium iodide (PI) and BrdU, and subjected to FACS analysis. The BrdU-positive population are plotted as bars. D: Cells were treated with Group 1 Compound 1 (a131), Compound 16 (b5), and Compound 17 (b9); Group 2 Compound 13 (b12), Compound 12 (b16) and Compound 25 (a166), and Group 3 Compound 3 (a159) at 5 μM for 48 h. The percentage of cells with BrdU positive population, in comparison with DMSO control vehicle, is shown with mean values±S.D. (n=3).
Isogenic non-transformed and oncogene-transformed BJ cells (cultured as in Biology Example 3) were treated with Compound 1 at final concentrations of 2.5 and 5 μM for 24 h. The treated cells were then treated with 30 μM final concentration of 5-bromo-2′-deoxyuridine (BrdU, SIGMA) for 1 h to detect DNA synthesis as a marker for cell proliferation. Subsequently, the cells were fixed in EtOH at 4° C. overnight and permeabilized with 2N HCl/0.5% Triton X-100 for 30 min. The cells were then treated with 0.1M sodium tetraborate for 2 min and stained with anti-BrdU antibody (Invitrogen, Cat#B35129) for 60 min, followed by a 30 min treatment with 20 μg/mL of propidium iodide (PI) and 10 μg/mL RNaseA.
Furthermore, the abilities of additional five (5) Compounds to arrest cells at the stage of G1/S phase of the cell cycle were evaluated. […] The abilities of these Compounds to arrest cells at the stage of G1/S phase of the cell cycle were then measured by using BrdU incorporation assay and FACS analysis. The percentage of cells with BrdU positive population in comparison with DMSO control vehicle was determined and plotted with mean values±S.D. (n=3).

[5] = tested on: pH3 (Ser10) and LC3 in BJ transformed cells; assay: Immunoblot classification of compounds by pH3 and LC3 (FIG. 4); format: cell-based, human; settings: 5 μM, 24 h
Procedure: as §1, §4

[6] = tested on: HCT-15 human colon adenocarcinoma xenografts; assay: Tumour xenograft efficacy, tumour volume; format: in vivo, mice; settings: HCT15 xenografts; intravenously 40 mg/kg, 3 times every 4 days; vs vehicle
Procedure: A, B: is a graphical representation of tumour volumes estimated periodically as indicated. Mice bearing established tumour xenografts using HCT15 or MDA-MB-231 cells were treated orally (PO) or intraperitoneally (IP) twice a day with the indicated doses of Compound 1 or Compound 16 for 12 or 15 days. Paclitaxel (PTX) was given intravenously at dose of 40 mg/kg, 3 times every 4 days. Error bars show ±S.D. from mean tumour volumes obtained from 6 mice. Student's t-test was performed to determine the statistical significance (*=p<0.005). C: is a bar graph showing quantification of cells (n>100 per condition) with misaligned chromosomes and multipolar mitotic-spindles. […] tumour sections treated with Compound 16 (80 mg/kg) or control vehicle for 12 days were stained with anti-β-tubulin antibodies and DAPI. The percentage of cells with misaligned chromosomes and multipolar mitotic-spindles was quantified and plotted with mean values±S.D.
Mice bearing established tumor xenografts using HCT15 or MDA-MB-231 cells were treated orally (PO) or intraperitoneally (IP) twice a day with the indicated doses of Compound 1 or its derivative Compound 16 (b5) for 12 or 15 days, respectively. For comparison, paclitaxel (PTX) was given intravenously to mice bearing established tumour xenografts using HCT15 at dose of 40 mg/kg, 3 times every 4 days.

[7] = tested on: non-transformed normal and oncogene-transformed human fibroblast BJ cell lines; assay: Chemoprotection from paclitaxel, Annexin V/PI FACS; format: cell-based; settings: paclitaxel treatment alone, 50 nM
Procedure: Normal and transformed BJ cells were treated with Compound 25 at 5 μM. 48 h after treatment, cells were further treated with (A) 50 nM paclitaxel (PTX) or (B) etoposide, at the concentrations shown, for additional 48 or 72 h, respectively. A: cells were collected, stained with Annexin V together with propidium iodide (PI) and subjected to FACS analysis. […] Student's t-test was performed to determine the statistical significance (***=P<0.0001, **=P<0.001, *=P<0.05, n.s.=no significance).
The chemoprotective efficacies of the Compounds in Group 2 were further evaluated by measuring their ability to protect non-transformed normal cells, but not cancer and oncogene-transformed counterparts, from the most well-known as well as clinically-relevant chemotherapeutic agents, paclitaxel and etoposide. To determine this, isogenic non-transformed normal and oncogene-transformed human fibroblast BJ cell lines, cultured in DMEM supplemented with 10% FBS, were pre-treated with Compound 25 (a166—Group 2) at 5 μM. 48 h after treatment, cells were further treated with paclitaxel (PTX; FIG. 13A) or etoposide (FIG. 13B) for an additional 72 h. […] For etoposide, cell viability was determined using MTT assay and plotted in comparison with DMSO control vehicle with mean values±S.D. (n=4).

Question: How did the “mitotic arrest, chromosome alignment and mitotic spindles” value [1] turn out when `CCN(CC)CCCC(C)Nc1ccnc2cc(Cl)ccc12` (centres unmarked) [CQ, chloroquine, reference compound] was run?
Answer: no such effects were seen

Question: How did the fold induction at 5 µM [2] turn out when `N#C/C(=C\c1cccc2cnccc12)c1cn(C(=O)C2CCNCC2)c2ccccc12` [Compound 21, (Z)-3-(isoquinolin-5-yl)-2-(1-(piperidine-4-carbonyl)-1H-indol-3-yl)acrylonitrile] was run?
Answer: 10.1

Question: What about the fold induction at 5 µM [3] of the same compound?
Answer: 7.3

Question: And the BrdU-positive cell population [4]?
Answer: substantially decreased the population of BrdU-positive cells

Question: What about the “Inhibition of lysosome function and/or mitosis (FIG. 4)” value [5] of the same compound?
Answer: exhibit the dual properties of inhibiting both lysosome function and mitosis

Question: Which fold induction at 5 µM [2] does the source give for `N#C/C(=C\c1cccc2cnccc12)c1cn(C(=O)C2CCN(C(=O)CCCC[C@@H]3SC[C@@H]4NC(=O)N[C@@H]43)CC2)c2ccccc12` [Compound 23, (Z)-3-(isoquinolin-5-yl)-2-(1-(1-(5-((3aS,4S,6aR)-2-oxohexahydro-1H-thieno[3,4-d]imidazol-4-yl)pentanoyl)piperidine-4-carbonyl)-1H-indol-3-yl)acrylonitrile] here?
Answer: 18.6

Question: And the fold induction at 5 µM [3]?
Answer: 5.7

Question: What about the BrdU-positive cell population [4] of the same compound?
Answer: substantially decreased the population of BrdU-positive cells

Question: What about the “Inhibition of lysosome function and/or mitosis (FIG. 4)” value [5] of the same compound?
Answer: exhibit the dual properties of inhibiting both lysosome function and mitosis

Question: For `CC(=O)O[C@H]1C(=O)[C@@]2(C)[C@H]([C@H](OC(=O)c3ccccc3)[C@]3(O)C[C@H](OC(=O)[C@H](O)[C@@H](NC(=O)c4ccccc4)c4ccccc4)C(C)=C1C3(C)C)[C@]1(OC(C)=O)CO[C@@H]1C[C@@H]2O` [paclitaxel, reference compound], which “anti-tumour effect (tumour volume)” value [6] is on record?
Answer: did not show significant anti-tumour effects

Question: And the “selectivity of cell death for oncogene-transformed BJ cells” value [7]?
Answer: showed a minimal selectivity for oncogene-transformed BJ cells
